ChEMBL document CHEMBL3045835, “Comparative study of conventional and microwave-assisted synthesis of some Schiff bases and their potential as antimicrobial agents” (2012)
≈ marks a conversion by molar mass, not a printed value.

Tests used:
Assay type in all cases: functional
Micrococcus luteus [1] = assay: Antibacterial activity against Micrococcus luteus MTCC 1538 at 1000 ug/ml after 18 hr by cup-plate method; conditions: MTCC 1538, 18 h, read-out: DIZ
Penicillium chrysogenum = assay: Antifungal activity against Penicillium chrysogenum MTCC 161 at 1000 ug/ml after 18 hr by cup-plate method; conditions: MTCC 161, 18 h, read-out: DIZ
Bacillus pumilus [2] = assay: Antibacterial activity against Bacillus pumilus MTCC 1456 at 1000 ug/ml after 18 hr by cup-plate method; conditions: MTCC 1456, 18 h, read-out: DIZ
Aspergillus niger [3] = assay: Antifungal activity against Aspergillus niger MTCC 2546 at 100 ug/ml after 18 hr by cup-plate method; conditions: MTCC 2546, 18 h, read-out: DIZ
Escherichia coli [4] = assay: Antibacterial activity against Escherichia coli MTCC 1573 at 1000 ug/ml after 18 hr by cup-plate method; conditions: MTCC 1573, 18 h, read-out: DIZ
Aspergillus niger [5] = assay: Antifungal activity against Aspergillus niger MTCC 2546 at 500 ug/ml after 18 hr by cup-plate method; conditions: MTCC 2546, 18 h, read-out: DIZ
Pseudomonas aeruginosa [6] = assay: Antibacterial activity against Pseudomonas aeruginosa MTCC 424 at 100 ug/ml after 18 hr by cup-plate method; conditions: MTCC 424, 18 h, read-out: DIZ
Staphylococcus aureus [7] = assay: Antibacterial activity against Staphylococcus aureus MTCC 1430 at 1000 ug/ml after 18 hr by cup-plate method; conditions: MTCC 1430, 18 h, read-out: DIZ
Bacillus pumilus [8] = assay: Antibacterial activity against Bacillus pumilus MTCC 1456 after 24 hr by broth dilution method; conditions: MTCC 1456, 24 h
Pseudomonas fluorescens [9] = assay: Antibacterial activity against Pseudomonas fluorescens MTCC 2421 at 100 ug/ml after 18 hr by cup-plate method; conditions: MTCC 2421, 18 h, read-out: DIZ
Bacillus pumilus [10] = assay: Antibacterial activity against Bacillus pumilus MTCC 1456 at 1500 ug/ml after 18 hr by cup-plate method; conditions: MTCC 1456, 18 h, read-out: DIZ
Aspergillus niger [11] = assay: Antifungal activity against Aspergillus niger MTCC 2546 at 200 ug/ml after 18 hr by cup-plate method; conditions: MTCC 2546, 18 h, read-out: DIZ
Staphylococcus aureus [12] = assay: Antibacterial activity against Staphylococcus aureus MTCC 1430 after 24 hr by broth dilution method; conditions: MTCC 1430, 24 h
Escherichia coli [13] = assay: Antibacterial activity against Escherichia coli MTCC 1573 at 500 ug/ml after 18 hr by cup-plate method; conditions: MTCC 1573, 18 h, read-out: DIZ
Pseudomonas aeruginosa [14] = assay: Antibacterial activity against Pseudomonas aeruginosa MTCC 424 at 500 ug/ml after 18 hr by cup-plate method; conditions: MTCC 424, 18 h, read-out: DIZ
Bacillus pumilus [15] = assay: Antibacterial activity against Bacillus pumilus MTCC 1456 at 500 ug/ml after 18 hr by cup-plate method; conditions: MTCC 1456, 18 h, read-out: DIZ
Staphylococcus aureus [16] = assay: Antibacterial activity against Staphylococcus aureus MTCC 1430 at 500 ug/ml after 18 hr by cup-plate method; conditions: MTCC 1430, 18 h, read-out: DIZ
Pseudomonas aeruginosa [17] = assay: Antibacterial activity against Pseudomonas aeruginosa MTCC 424 at 1500 ug/ml after 18 hr by cup-plate method; conditions: MTCC 424, 18 h, read-out: DIZ
Bacillus subtilis = assay: Antibacterial activity against Bacillus subtilis MTCC 441 at 200 ug/ml after 18 hr by cup plate method; conditions: MTCC 441, 18 h, read-out: DIZ
Micrococcus luteus [18] = assay: Antibacterial activity against Micrococcus luteus MTCC 1538 at 200 ug/ml after 18 hr by cup-plate method; conditions: MTCC 1538, 18 h, read-out: DIZ
Pseudomonas fluorescens [19] = assay: Antibacterial activity against Pseudomonas fluorescens MTCC 2421 at 200 ug/ml after 18 hr by cup-plate method; conditions: MTCC 2421, 18 h, read-out: DIZ
Micrococcus luteus [20] = assay: Antibacterial activity against Micrococcus luteus MTCC 1538 at 500 ug/ml after 18 hr by cup-plate method; conditions: MTCC 1538, 18 h, read-out: DIZ
Micrococcus luteus [21] = assay: Antibacterial activity against Micrococcus luteus MTCC 1538 at 1500 ug/ml after 18 hr by cup-plate method; conditions: MTCC 1538, 18 h, read-out: DIZ
Pseudomonas aeruginosa [22] = assay: Antibacterial activity against Pseudomonas aeruginosa MTCC 424 after 24 hr by broth dilution method; conditions: MTCC 424, 24 h
Escherichia coli [23] = assay: Antibacterial activity against Escherichia coli MTCC 1573 at 100 ug/ml after 18 hr by cup-plate method; conditions: MTCC 1573, 18 h, read-out: DIZ
Escherichia coli [24] = assay: Antibacterial activity against Escherichia coli MTCC 1573 after 24 hr by broth dilution method; conditions: MTCC 1573, 24 h
Aspergillus niger [25] = assay: Antifungal activity against Aspergillus niger MTCC 2546 after 24 hr by broth dilution method; conditions: MTCC 2546, 24 h

Compound `C(=N\c1nc[nH]n1)/c1cccs1` has a zone of inhibition at 1000 µg/mL (Micrococcus luteus [1]) of 20 mm, a zone of inhibition at 1000 µg/mL (Penicillium chrysogenum) of 18 mm and a zone of inhibition at 1000 µg/mL (Bacillus pumilus [2]) of 17 mm. The zone of inhibition at 100 µg/mL (Aspergillus niger [3]) was 11 mm, the zone of inhibition at 1000 µg/mL (Escherichia coli [4]) was 20 mm and the zone of inhibition at 500 µg/mL (Aspergillus niger [5]) was 15 mm. For the same compound, the zone of inhibition at 100 µg/mL (Pseudomonas aeruginosa [6]) was 12 mm, the zone of inhibition at 1000 µg/mL (Staphylococcus aureus [7]) was 18 mm and the MIC (Bacillus pumilus [8]) was 200 µg/mL (≈ 1120 µM). It also gave a zone of inhibition at 100 µg/mL (Pseudomonas fluorescens [9]) of 11 mm, a zone of inhibition at 1500 µg/mL (Bacillus pumilus [10]) of 18 mm and a zone of inhibition at 200 µg/mL (Aspergillus niger [11]) of 13 mm. It also gave an MIC (Staphylococcus aureus [12]) of 300 µg/mL (≈ 1680 µM), a zone of inhibition at 500 µg/mL (Escherichia coli [13]) of 18 mm and a zone of inhibition at 500 µg/mL (Pseudomonas aeruginosa [14]) of 15 mm. The zone of inhibition at 500 µg/mL (Bacillus pumilus [15]) was 16 mm, the zone of inhibition at 500 µg/mL (Staphylococcus aureus [16]) was 16 mm and the zone of inhibition at 1500 µg/mL (Pseudomonas aeruginosa [17]) was 20 mm. It also gave a zone of inhibition at 200 µg/mL (Bacillus subtilis) of 11 mm, a zone of inhibition at 200 µg/mL (Micrococcus luteus [18]) of 16 mm and a zone of inhibition at 200 µg/mL (Pseudomonas fluorescens [19]) of 13 mm. It also gave a zone of inhibition at 500 µg/mL (Micrococcus luteus [20]) of 18 mm, a zone of inhibition at 1500 µg/mL (Micrococcus luteus [21]) of 22 mm and an MIC (Pseudomonas aeruginosa [22]) of 200 µg/mL (≈ 1120 µM). For the same compound, the zone of inhibition at 100 µg/mL (Escherichia coli [23]) was 14 mm, the MIC (Escherichia coli [24]) was 200 µg/mL (≈ 1120 µM) and the MIC (Aspergillus niger [25]) was 300 µg/mL (≈ 1680 µM).
